Experiments:
hBACE-1 = hBACE-1 (Homo sapiens, UniProt P56817); assay: BACE-1 FRET inhibition assay; format: biochemical; conditions: FRET assay; average of multiple experiments each in triplicate, ± SEM
Method: The new benzophenone-based hybrids 3–7 presented in this study were first evaluated for their in vitro ability to inhibit the enzymatic activity of BACE-1, by means of a biochemical assay performed using the fluorescence resonance energy transfer (FRET) methodology and in comparison to inhibitor IV [22] as reference compound (Table 1). For the most interesting compounds 3–5, endowed with the orto-hydroxycarbonyl substitution pattern, the neuroprotective potential was determined as lack of toxic effects on neuronal cell viability and as Cu(II) chelating activity (Table 2); moreover, their direct interactions with Cu(II) ion were confirmed by a UV-vis spectrophotometric study.
Inhibition studies were performed using the following procedure: 5 μL of test compound (or DMSO) were pre-incubated with 175 μL of enzyme (10.37 nM, final concentration) in 20 mM NaOAc pH 4.5 containing CHAPS (0.1% w/v) for 1 h at r.t.; M-2420 (3 μM, final concentration) was then added and left to react for 15 min. The fluorescence signal was read at λem = 405 nm (λexc = 320 nm). DMSO concentration in the final mixture was maintained below 5% (v/v) to guarantee no significant loss of enzyme activity.Fluorescence intensities with and without inhibitor were compared and the percent inhibition due to the presence of test compounds was calculated. The background signal was measured in control wells containing all the reagents, except theenzymeand subtracted. The % inhibition due to the presence of increasing test compound concentration was calculated by the following expression: 100 − (IFi/IFo × 100) where IFi and IFo are the fluorescence intensities obtained for the enzyme in the presence and in the absence of inhibitor, respectively. Inhibition curves were obtained for each compound by plotting the % inhibition versus the logarithm of inhibitor concentration in the assay sample. The linear regression parameters were determined and the IC50 extrapolated (GraphPad Prism 4.0, GraphPad Software Inc., San Diego, CA, USA).

SH-SY5Y cells [1] = assay: Neurotoxicity, MTT cell viability assay; format: cell-based, human; conditions: SH-SY5Y cells, MTT
Method: Cytotoxic effects in several in vitro or in vivo models have been reported for some chalcones. Therefore, to discriminate the neurotoxic concentrations of the conjugates 3–5 we evaluated the cell viability of human neuronal SH-SY5Y cells after 24 h treatment with these conjugate at different concentrations (1.25–40 μM) using the MTT assay. […] Thus, the presence of an α,β-unsatured carbonyl fragment seems to positively influence the degree of neuronal toxicity, leading to molecules endowed with a favorable SI.
Human neuronal (SH-SY5Y) cells were routinely grown in Dulbecco’s modified Eagle’ Medium (DMEM) supplemented with 10% fetal bovine serum, 2 mmol/L-glutamine, 50 U·mL^−1penicillin and 50 μg·mL^−1streptomycin at 37 °C in a humidified incubator with 5% CO2.
To evaluate the neurotoxicity of compounds, the SH-SY5Y cells were seeded in 96-well plates at 2 × 10^4 cells/well, incubated for 24 h and subsequently treated with various concentrations of compounds (1.25–40 µM) for 24 h at 37 °C in 5% CO2;. The cell viability in terms of mitochondrial metabolic function was evaluated by the reduction in 3-(4,5-dimethyl-2-thiazolyl)-2,5-diphenyl-2H-tetrazolium bromide (MTT) to formazan as previously described. The quantity of formazan was directly proportional to the number of viable cells. Briefly, the treatment medium was replaced with MTT (5 mg/mL) in phosphate-buffered saline (PBS) for 2 h at 37 °C in 5% CO2. After washing with PBS, the formazan crystals were dissolved with isopropanol. The amount of formazan was measured (570 nm, reference filter 690 nm) using a multilabel plate reader (VICTOR™ X3, PerkinElmer, Waltham, MA, USA). The neurotoxicity is expressed as concentration of compound resulting in 50% inhibition of cell viability.

SH-SY5Y cells [2] = assay: Inhibition of Cu(II)-mediated intracellular ROS formation (H2DCF-DA probe); format: cell-based, human; conditions: 5 and 10 µM compound, H2O2 (100 µM)/CuSO4 (25 µM), 30 min
Method: Our attention was then focused on the study of the intracellular antioxidant effect mediated by Cu(II) chelation. Therefore, compound 5 was selected to be studied in SH-SH5Y cells for its ability to counteract ROS formation elicited by Fenton reaction with CuSO4 (25 µM) and H2O2 (100 µM), and using 2′,7′-dichlorodihydrofluorescein diacetate (H2DCF-DA) as the fluorescent probe.
The intracellular antioxidant activity of the compounds was evaluated in SH-SY5Y cells as previously described with minor changes. Briefly, the SH-SY5Y cells were seeded in 96-well plates at 3 × 10^4 cells/well and incubated for 24 h at 37 °C in 5% CO2. […] The ROS formation was measured (excitation at 485 nm and emission at 535 nm) using a multilabel plate reader (VICTOR™ X3). The values are expressed as arbitrary fluorescence units (AUF).
Figure 2 Effect of compound 5 on ROS formation elicited by H2O2/CuSO4 in SH-SY5Y cells. […] At the end of the incubation, intracellular ROS formation was determined using a fluorescence probe, as described in the Materials and Methods section. The arbitrary units of fluorescence (AUF) values are shown as mean ± SD of at least three independent experiments (^### P < 0.001 versus untreated cells, *** P < 0.001 versus cells treated with H2O2/CuSO4, at ANOVA with Bonferroni’s Post Hoc Test).

Sequence of hBACE-1 (P56817 46-501): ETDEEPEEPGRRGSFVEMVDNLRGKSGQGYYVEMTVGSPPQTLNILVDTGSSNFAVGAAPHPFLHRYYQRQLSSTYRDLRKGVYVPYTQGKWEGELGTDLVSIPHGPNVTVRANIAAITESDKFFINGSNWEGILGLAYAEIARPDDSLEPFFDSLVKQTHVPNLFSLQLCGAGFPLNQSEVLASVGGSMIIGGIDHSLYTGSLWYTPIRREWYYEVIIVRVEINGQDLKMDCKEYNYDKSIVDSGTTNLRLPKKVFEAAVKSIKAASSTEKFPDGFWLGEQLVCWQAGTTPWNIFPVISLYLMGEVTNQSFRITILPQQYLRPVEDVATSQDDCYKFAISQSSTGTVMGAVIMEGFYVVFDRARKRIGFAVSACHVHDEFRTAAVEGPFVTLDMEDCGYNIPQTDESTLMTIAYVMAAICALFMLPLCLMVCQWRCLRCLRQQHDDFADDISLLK

IC50 (hBACE-1): 4.02 ± 0.29 µM
SMILES: CN(Cc1ccccc1)Cc1ccc(C(=O)c2ccc(OCCOc3ccc(C(=O)/C=C/c4cccc5ccccc45)c(O)c3)cc2)cc1 [Compound 5, E-1-{4-[2-(4-4-Benzylmethylaminomethylbenzoylphenoxy)ethoxy]-2-hydroxyphenyl}-3-(naphthalen-1-yl)-prop-2-en-1-one]
IC50 (SH-SY5Y cells [1]; Homo sapiens, 24 h treatment, 1.25–40 µM, mean ± SD): > 40 µM | neurotoxic effects (SH-SY5Y cells [1]; 24 h, 1.25–40 μM): not | ROS formation evoked by H2O2/CuSO4 (arbitrary fluorescence units) (SH-SY5Y cells [2]): significantly decreased
